This is an account of results in ChEMBL document CHEMBL2021812, “Aryltriflates as a Neglected Moiety in Medicinal Chemistry: A Case Study from a Lead Optimization of CXCL8 Inhibitors” (ACS Med Chem Lett, 2011).

SMILES strings stand for the structures. Active and inactive are the calls of the source. The rule behind the calls is not given here.

In one series the target is CYP2C9 (Homo sapiens, UniProt P11712). Briefly: Inhibition of CYP2C9 using 7MFC as substrate at 10 uM. The class given is ADME. The following applies: probe 7MFC.
The target of series [1] is Interleukin-8 receptors, CXCR1/CXCR2 (Homo sapiens) (UniProt P25025+P25024). Briefly: Inhibition of CXCR1/2 in human polymorphonucleate cells assessed as inhibition of CXCL8-induced chemotaxis at 10^-8 M incubated for 15 mins prior to CXCL8-induction measured after 45 mins.
In the next series the target is T1, CYP1A2 (Homo sapiens, UniProt P05177).
T1 sequence (P05177 whole entry): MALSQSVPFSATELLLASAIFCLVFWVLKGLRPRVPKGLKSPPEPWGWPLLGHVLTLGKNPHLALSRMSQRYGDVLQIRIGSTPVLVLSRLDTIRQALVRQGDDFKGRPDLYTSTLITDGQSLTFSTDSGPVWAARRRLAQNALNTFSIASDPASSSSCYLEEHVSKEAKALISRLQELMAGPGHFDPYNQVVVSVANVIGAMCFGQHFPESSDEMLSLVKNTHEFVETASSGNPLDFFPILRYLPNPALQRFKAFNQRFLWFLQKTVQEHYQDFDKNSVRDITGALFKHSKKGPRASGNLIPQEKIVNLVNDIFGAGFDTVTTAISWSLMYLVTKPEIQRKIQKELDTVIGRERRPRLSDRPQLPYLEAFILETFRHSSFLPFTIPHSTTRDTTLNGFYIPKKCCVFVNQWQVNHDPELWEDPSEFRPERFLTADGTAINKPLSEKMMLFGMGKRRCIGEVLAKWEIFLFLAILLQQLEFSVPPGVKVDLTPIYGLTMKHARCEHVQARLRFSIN
Briefly: Inhibition of CYP1A2 using CEC as substrate at 10 uM. The class given is ADME. The following applies: probe CEC.

In series [2] the target is T2, C-X-C chemokine receptor type 2 (Homo sapiens) (UniProt P25025).
T2 sequence (whole entry): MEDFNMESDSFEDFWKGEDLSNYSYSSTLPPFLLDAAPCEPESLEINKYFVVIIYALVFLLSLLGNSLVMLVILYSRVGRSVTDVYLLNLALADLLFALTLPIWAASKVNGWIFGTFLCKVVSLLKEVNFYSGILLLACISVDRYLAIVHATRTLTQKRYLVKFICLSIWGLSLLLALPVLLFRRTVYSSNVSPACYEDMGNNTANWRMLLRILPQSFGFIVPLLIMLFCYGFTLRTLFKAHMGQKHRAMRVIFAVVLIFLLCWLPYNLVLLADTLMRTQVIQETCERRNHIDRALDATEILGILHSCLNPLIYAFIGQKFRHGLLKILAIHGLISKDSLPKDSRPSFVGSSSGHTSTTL
Description: Inhibition of CXCR2 in human polymorphonucleate cells assessed as inhibition of CXCL1-induced chemotaxis at 10^-8 M incubated for 15 mins prior to CXCL1-induction measured after 45 mins.

The target in another series is CYP2C19 (Homo sapiens, UniProt P33261). Description: Inhibition of CYP2C19 using DBF as substrate at 10 uM. It is filed as ADME. To be noted: probe DBF.
A further series addresses CYP2D6 (Homo sapiens, UniProt P10635). Description: Inhibition of CYP2D6 using AMMC as substrate at 10 uM. The following applies: probe AMMC. The class given is ADME.
The next series concerns the target CYP3A4 (Homo sapiens, UniProt P08684). Description: Inhibition of CYP3A4 using BFC as substrate at 10 uM. The class given is ADME. The following applies: probe BFC.
A short description of series [3]: Metabolic stability in rat liver microsomes assessed as compound remaining at 1 uM preincubated for 10 mins measured after 30 mins. The class given is ADME, Microsome. To be noted: read-out: Stability.
A short description of series [4]: Chemical stability of the compound assessed as compound remaining at pH 7.4 after 2 hrs. The class given is physicochemical. The following applies: buffer, read-out: Stability.
Series [5] in a line: Half life in iv dosed rat plasma. It is filed as ADME, organism-based.
A short description of series [6]: Metabolic stability in rat plasma assessed as compound remaining at 1 uM after 1 hr. It is filed as ADME, cell-free. To be noted: read-out: Stability.
Series [7] in a line: Elimination half life in Sprague-Dawley rat at 14 mg/kg, iv. The class given is ADME, organism-based. Details: dose 14 mg/kg, route intravenous. The following applies: in vivo, read-out: beta t1/2 (converted).

Sequence of CYP2D6 (P10635 whole entry): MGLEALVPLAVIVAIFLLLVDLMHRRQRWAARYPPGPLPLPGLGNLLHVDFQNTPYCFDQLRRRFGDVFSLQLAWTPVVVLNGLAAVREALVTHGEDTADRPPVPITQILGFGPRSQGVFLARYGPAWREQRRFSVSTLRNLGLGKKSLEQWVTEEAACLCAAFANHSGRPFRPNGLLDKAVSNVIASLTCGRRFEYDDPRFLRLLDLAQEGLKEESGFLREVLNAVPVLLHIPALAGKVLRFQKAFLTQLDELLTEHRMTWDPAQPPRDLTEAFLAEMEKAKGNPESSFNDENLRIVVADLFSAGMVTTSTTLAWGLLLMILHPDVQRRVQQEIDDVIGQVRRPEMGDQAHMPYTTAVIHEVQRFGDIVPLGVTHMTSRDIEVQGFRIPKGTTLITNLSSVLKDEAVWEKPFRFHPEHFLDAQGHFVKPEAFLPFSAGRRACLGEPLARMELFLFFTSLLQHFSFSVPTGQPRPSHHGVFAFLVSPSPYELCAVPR
Sequence of CYP2C9 (P11712 whole entry): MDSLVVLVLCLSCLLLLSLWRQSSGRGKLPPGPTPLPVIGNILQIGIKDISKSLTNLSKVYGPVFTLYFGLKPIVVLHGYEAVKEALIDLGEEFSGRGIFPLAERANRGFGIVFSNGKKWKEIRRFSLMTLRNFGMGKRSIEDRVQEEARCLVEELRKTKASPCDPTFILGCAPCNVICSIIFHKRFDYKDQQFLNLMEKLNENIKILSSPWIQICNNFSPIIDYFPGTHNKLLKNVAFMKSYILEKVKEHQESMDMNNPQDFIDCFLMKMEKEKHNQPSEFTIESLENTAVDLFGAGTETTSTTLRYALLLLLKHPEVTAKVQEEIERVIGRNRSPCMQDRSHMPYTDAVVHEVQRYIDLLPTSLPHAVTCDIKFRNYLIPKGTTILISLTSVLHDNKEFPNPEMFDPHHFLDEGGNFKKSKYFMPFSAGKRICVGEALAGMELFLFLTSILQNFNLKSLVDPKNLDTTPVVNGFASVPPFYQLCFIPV
Sequence of CYP3A4 (P08684 whole entry): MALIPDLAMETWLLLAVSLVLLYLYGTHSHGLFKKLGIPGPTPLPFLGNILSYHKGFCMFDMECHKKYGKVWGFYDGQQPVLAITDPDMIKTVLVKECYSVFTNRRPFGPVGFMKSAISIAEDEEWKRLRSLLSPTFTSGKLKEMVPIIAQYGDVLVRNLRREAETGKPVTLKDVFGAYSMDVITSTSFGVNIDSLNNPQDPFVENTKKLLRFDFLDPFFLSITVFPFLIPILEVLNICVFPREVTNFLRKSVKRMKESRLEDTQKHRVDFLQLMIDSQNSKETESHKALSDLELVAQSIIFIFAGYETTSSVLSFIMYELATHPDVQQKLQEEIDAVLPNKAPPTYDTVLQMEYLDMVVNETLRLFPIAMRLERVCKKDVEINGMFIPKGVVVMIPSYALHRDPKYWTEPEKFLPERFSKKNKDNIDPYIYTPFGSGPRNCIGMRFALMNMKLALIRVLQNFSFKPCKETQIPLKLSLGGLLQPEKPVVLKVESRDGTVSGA
Sequence of CYP2C19 (P33261 whole entry): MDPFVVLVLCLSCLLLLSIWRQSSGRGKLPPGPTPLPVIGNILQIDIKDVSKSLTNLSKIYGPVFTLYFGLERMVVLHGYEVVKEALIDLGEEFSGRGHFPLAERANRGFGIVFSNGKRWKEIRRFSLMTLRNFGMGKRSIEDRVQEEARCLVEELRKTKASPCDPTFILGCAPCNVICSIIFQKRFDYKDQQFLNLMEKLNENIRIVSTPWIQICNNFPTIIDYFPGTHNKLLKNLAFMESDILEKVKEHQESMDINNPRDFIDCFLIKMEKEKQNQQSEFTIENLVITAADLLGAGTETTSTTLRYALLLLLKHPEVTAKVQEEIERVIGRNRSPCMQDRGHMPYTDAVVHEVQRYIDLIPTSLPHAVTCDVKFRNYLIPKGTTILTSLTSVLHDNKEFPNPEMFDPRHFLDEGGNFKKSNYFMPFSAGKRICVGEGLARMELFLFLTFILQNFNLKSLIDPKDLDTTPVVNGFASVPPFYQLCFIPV
Sequence of Interleukin-8 receptors, CXCR1/CXCR2 (Homo sapiens) (P25024 whole entry, looked up, one chain of several): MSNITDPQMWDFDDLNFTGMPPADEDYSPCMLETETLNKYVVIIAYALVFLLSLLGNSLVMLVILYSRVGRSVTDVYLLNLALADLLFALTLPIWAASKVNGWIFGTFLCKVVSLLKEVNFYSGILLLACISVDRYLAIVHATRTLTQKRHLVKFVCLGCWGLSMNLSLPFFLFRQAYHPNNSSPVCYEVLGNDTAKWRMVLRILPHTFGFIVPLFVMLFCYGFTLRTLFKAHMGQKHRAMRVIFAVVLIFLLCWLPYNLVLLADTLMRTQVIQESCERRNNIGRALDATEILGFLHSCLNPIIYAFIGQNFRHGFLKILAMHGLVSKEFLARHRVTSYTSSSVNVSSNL

As to `C[C@@H](C(=O)Nc1nc(C(F)(F)F)co1)c1ccc(OS(=O)(=O)C(F)(F)F)cc1`, the inhibition at 10 µM against CYP2C9 was 87%; against CYP1A2, < 5%; against CYP2C19 it was 94%; against CYP2D6, 38%; against CYP3A4, 82%. The inhibition is 60% in [1] and 50% in series [2].
As to `C[C@@H](C(=O)NOCC1CC1)c1ccc(OS(=O)(=O)C(F)(F)F)cc1`, the inhibition in [1] amounted to 40%; in series [2] it was 35%.
For `C[C@@H](C(=O)NO)c1ccc(OS(=O)(=O)C(F)(F)F)cc1`, in series [3], the remaining at 0.5 h, 1 µM was determined as 87%. In addition, the remaining at 2 h in series [4] was > 98%. In addition, the inhibition in [1] came out at 50%; in series [2], 49%. The half-life in series [5] was < 60 min. Moreover, the remaining at 1 h, 1 µM in series [6] stood at 85%.
In the case of `C[C@@H](C(=O)Nc1nnco1)c1ccc(OS(=O)(=O)C(F)(F)F)cc1`, the inhibition is 44% in series [1] and 48% in series [2].
With `C[C@@H](C(=O)Nc1nc(C(F)(F)F)cs1)c1ccc(OS(=O)(=O)C(F)(F)F)cc1`, the inhibition at 10 µM against CYP2C9 was found to be 73%; at CYP1A2 it was 14%; on CYP2C19, 94%; at CYP2D6 it was 56%; against CYP3A4, 52%. Also, the inhibition came out at 64% in series [1] and 55% in [2].
For the molecule `CC(C)NC(=O)[C@H](C)c1ccc(OS(=O)(=O)C(F)(F)F)cc1`, in [3], the remaining at 0.5 h, 1 µM amounted to 75%. In addition, the inhibition came out at 58% in [1] and 65% in [2].
As to `C[C@@H](C(=O)Nc1nccs1)c1ccc(OS(=O)(=O)C(F)(F)F)cc1`, the inhibition at 10 µM worked out at 53% against CYP2C9; 36% at CYP1A2; 87% against CYP2C19; 26% at CYP2D6; 52% against CYP3A4. In addition, the figures for the inhibition in series [1] and in [2] were 56% and 55%, respectively.
On to `Cc1csc(NC(=O)[C@H](C)c2ccc(OS(=O)(=O)C(F)(F)F)cc2)n1`, for which the inhibition at 10 µM on CYP2C9 was 60%; against CYP1A2, 16%; on CYP2C19, 90%; against CYP2D6 it was < 5%; against CYP3A4, 60%. In addition, the inhibition in [1] is 58%; in series [2], 50%.
Take `CC(C)ONC(=O)[C@H](C)c1ccc(OS(=O)(=O)C(F)(F)F)cc1`: the remaining at 0.5 h, 1 µM in series [3] came out at 75%. The inhibition in [1] turned out to be 49%; in series [2], 38%. In series [6], the remaining at 1 h, 1 µM was determined as 85%.
In the case of `C[C@@H](C(=O)N(C)O)c1ccc(OS(=O)(=O)C(F)(F)F)cc1`, the remaining at 0.5 h, 1 µM in series [3] stood at 75%. Further, the remaining at 2 h in series [4] was > 98%. For the same molecule, the inhibition in [1] stood at 47%; in series [2], 49%. Further, the half-life in [5] was < 60 min. In addition, the remaining at 1 h, 1 µM in series [6] is 96%.
In the case of `C[C@H](C(=O)O)c1ccc(OS(=O)(=O)C(F)(F)F)cc1`, the inhibition entry in [1] and in [2] was “inactive” throughout.
Consider `C[C@H](C(=O)NS(C)(=O)=O)c1ccc(OS(=O)(=O)C(F)(F)F)cc1`, for which the inhibition entry in series [1] and in series [2] was “inactive” each time.
As to `CONC(=O)[C@H](C)c1ccc(OS(=O)(=O)C(F)(F)F)cc1`, the remaining at 0.5 h, 1 µM in series [3] is 65%. In series [4], the remaining at 2 h is > 98%. For the same molecule, the inhibition in [1] worked out at 56%; in series [2], 46%. The half-life in series [5] is < 60 min. The remaining at 1 h, 1 µM in series [6] was determined as 90%.
For `CC(C)Cc1ccc([C@@H](C)C(=O)NS(C)(=O)=O)cc1` [REPARIXIN], the half-life in series [7] was 45 min. The inhibition in series [1] was 68%; in series [2], 22%.
With `C[C@@H](C(=O)Nc1nnc[nH]1)c1ccc(OS(=O)(=O)C(F)(F)F)cc1`, the inhibition at 10 µM on CYP2C9 is < 5%; against CYP1A2, < 5%; on CYP2C19 it was 21%; against CYP2D6 it was < 5%; against CYP3A4, 8%. In addition, the results for the inhibition in [1] and in series [2] were 44% and 45%, respectively.
With `C[C@@H](C(N)=O)c1ccc(OS(=O)(=O)C(F)(F)F)cc1`, the remaining at 0.5 h, 1 µM in series [3] was 80%. Further, the inhibition was determined as 58% in series [1] and 56% in [2].
`C[C@@H](C(=O)Nc1ncco1)c1ccc(OS(=O)(=O)C(F)(F)F)cc1`: the inhibition at 10 µM against CYP2C9 was 70%; at CYP1A2, 15%; against CYP2C19 it was 90%; against CYP2D6, < 5%; at CYP3A4 it was 44%. The results for the inhibition in series [1] and in series [2] were 47% and 46%, respectively.
Regarding `C[C@@H](C(=O)Nc1ccccn1)c1ccc(OS(=O)(=O)C(F)(F)F)cc1`, the inhibition at 10 µM is 37% against CYP2C9; < 5% against CYP1A2; 97% at CYP2C19; 21% on CYP2D6; 15% against CYP3A4. The results for the inhibition in [1] and in series [2] were 43% and 45%, respectively.
Regarding `C[C@@H](C(=O)Nc1nncs1)c1ccc(OS(=O)(=O)C(F)(F)F)cc1`, the inhibition at 10 µM was 50% at CYP2C9; < 5% against CYP1A2; 70% at CYP2C19; 40% against CYP2D6; 66% on CYP3A4. Moreover, the inhibition came out at 54% in [1] and 55% in series [2].
For `C[C@@H](C(=O)NS(=O)(=O)C1CC1)c1ccc(OS(=O)(=O)C(F)(F)F)cc1`, the inhibition turned out to be 44% in series [1] and 45% in series [2].
